Experimental data: article PMC9818789, “Identification of Small-Molecule Bioactive Constituents from the Leaves of Vaccinium bracteatum Confirms It as a Potential Functional Food with Health Benefits” (Foods, 2023)

Key:
PC12 cells = test: Neuroprotective assay: 6-OHDA-induced PC12 cell injury, MTT; type: cell-based; conditions: for Neuroprotective effect against 6-OHDA-induced PC12 cell injury (cell viability): pretreated 12 h, 6-OHDA 150 μM for 13 h
Procedure: The cell cultures were prepared according to the method described by Sergi et al.. Briefly, the protection of compounds 1–8 on 6-hydroxydopamine (6-OHDA)-induced PC 12 cell injury was assessed by MTT (3-(4,5-dimethylthiazol-2-yl)-2,5-diphenyltetrazolium bromide) assay, and N-acetylcysteine (NAC, 50 μM) was used as the positive control. PC12 cells were cultured in RPMI 1640 medium supplemented with 10% fetal bovine serum (FBS), and they were incubated at 37
C in a humidified environment containing 5% CO2 and then cultured in 96-well plates at a density of 1.5 × 10^5 cells/well in 100 μL for 24 h. The neuron cells were first pretreated with various concentrations (25, 50, 100 μM) of tested compounds for 12 h before 6-OHDA (150 μM) treatment for further 13 h. Then, 10 μL of MTT was added to each well and incubated for another 4 h, and the crystals were dissolved with DMSO. The optical density at 490 nm was detected by a plate reader. The cell viability was lastly measured to evaluate the compounds’ protective effect, which was expressed as the percentage of the control group.

[1] = DPPH radical scavenging assay; conditions: mean ± SD (n = 3); NA = not active (<50% radical scavenging activity at the highest testing concentration of 200 μM); read-out: DPPH free radical scavenging activity IC50
Procedure: The antioxidant effect of the VBL constituents was assessed by besting their free radical scavenging activity with the ABTS (diammonium 2,2′-azino-bis (3-ethylbenzothiazoline-6-sulphonate) and DPPH (1,1-diphenyl-2-picrylhydrazyl) methods, according to the protocols described previously, and ascorbic acid was used as the positive control.

[2] = ABTS radical scavenging assay; conditions: mean ± SD (n = 3); NA = not active (<50% radical scavenging activity at the highest testing concentration of 200 μM); read-out: ABTS free radical scavenging activity IC50
Procedure: The antioxidant effect of the VBL constituents was assessed by besting their free radical scavenging activity with the ABTS (diammonium 2,2′-azino-bis (3-ethylbenzothiazoline-6-sulphonate) and DPPH (1,1-diphenyl-2-picrylhydrazyl) methods, according to the protocols described previously [10], and ascorbic acid was used as the positive control.

[3] = test system: NO production in RAW264.7 macrophages; test: NO production inhibitory assay, lipopolysaccharide-induced macrophages; type: cell-based; conditions: Mus musculus, lipopolysaccharide-induced murine macrophages, read-out: NO production inhibition IC50
Procedure: The nitric oxide (NO) production inhibitory assay was conducted in murine RAW264.7 macrophages as we recorded in an early report, with quercetin as the reference compound.

| IC50 [1] [µM] | IC50 [2] [µM] | Compound | further results |
| --- | --- | --- | --- |
| 31.2 ± 1.9 | 9.54 ± 0.64 | COc1cc([C@H]2Oc3c(O)cc(CCCO)cc3[C@@H]2CO)ccc1O [Compound 12a, cedrusin] |  |
| 96.2 ± 8.34 | 26.2 ± 2.24 | COc1cc(C2c3c(cc(OC)c(O)c3OC)CC(CO)C2CO)cc(OC)c1O (stereo not shown) [Compound 16b, polystachyol] |  |
| 98.7 ± 1.78 | 12.1 ± 1.42 | COc1cc([C@@H](O)[C@@H](CO)Oc2ccc(CCCO)cc2OC)ccc1O [Compound 11a, threo-4,7,9,9′-tetrahydroxy-3,3′-dimethoxy-8,4′-oxyneolignane] |  |
| 40.4 ± 6.09 | 17.2 ± 0.89 | COc1cc([C@H]2Oc3c(OC)cc(CCCO)cc3[C@@H]2CO)cc(OC)c1O [Compound 15a, 5-methoxydihydrodehydrodiconiferyl alcohol] |  |
| 44.3 ± 2.05 | 12.3 ± 0.24 | COc1cc([C@@H]2Oc3c(O)cc(CCCO)cc3[C@H]2CO)ccc1O [Compound 12b, cedrusin] |  |
| 55.1 ± 2.43 | 24.2 ± 3.92 | COc1cc([C@@H]2Oc3c(OC)cc(CCCO)cc3[C@H]2CO)cc(OC)c1O [Compound 15b, 5-methoxydihydrodehydrodiconiferyl alcohol] |  |
| 62.9 ± 5.65 | 7.75 ± 0.71 | COc1cc(C2OC(c3ccc(O)c(OC)c3)C(CO)C2CO)ccc1O (stereo not shown) [Compound 17b, neo-olivil] |  |
| 105 ± 4.11 | 14.8 ± 1.25 | COc1cc([C@H](O)[C@H](CO)Oc2ccc(CCCO)cc2OC)ccc1O [Compound 11b, threo-4,7,9,9′-tetrahydroxy-3,3′-dimethoxy-8,4′-oxyneolignane] |  |
| 17.9 ± 4.58 |  | COc1cc(C2OC(c3cc(OC)c(O)c(OC)c3)C(CO)C2CO)cc(OC)c1O (stereo not shown) [Compound 18b, icariol A2] |  |
|  | 37.1 ± 8.17 | COc1ccc([C@@H]2Oc3c(O)cc(CCCO)cc3[C@H]2CO)cc1OC [Compound 13b, 4-O-methylcedrusin] |  |
| 47.9 ± 6.6 | 11.1 ± 3.31 | COc1cc(C2c3c(cc(OC)c(O)c3OC)CC(CO)C2CO)cc(OC)c1O (stereo not shown) [Compound 16a, polystachyol] |  |
| 17.3 ± 7.51 | 6.87 ± 0.54 | COc1cc(C2OC(c3cc(OC)c(O)c(OC)c3)C(CO)C2CO)cc(OC)c1O (stereo not shown) [Compound 18a, icariol A2] |  |
|  | 21.7 ± 3.5 | COc1ccc([C@H]2Oc3c(O)cc(CCCO)cc3[C@@H]2CO)cc1OC [Compound 13a, 4-O-methylcedrusin] |  |
| 40.8 ± 5.98 | 5.96 ± 0.3 | COc1cc(C2OC(c3ccc(O)c(OC)c3)C(CO)C2CO)ccc1O (stereo not shown) [Compound 17a, neo-olivil] |  |

The next lines start with the compound.

| Compound | IC50 [1] [µM] | IC50 [2] [µM] | further results |
| --- | --- | --- | --- |
| NCCc1cc(O)c(O)cc1O [Compound 6-OHDA, 6-hydroxydopamine, reference compound] |  |  | Inhibition ratio of PC12 cell viability (6-OHDA-induced cell injury) (PC12 cells; 6-OHDA at 150 μM): 52.68% |
| COc1cc(CCCO)ccc1O[C@H](CO)[C@@H](O)c1cc(OC)c(O)c(OC)c1 [Compound 9b] | 52.6 ± 6.89 | 10.1 ± 0.67 |  |
| O=C(/C=C/c1ccc(O)cc1)OC[C@@]12C[C@@H](O)[C@@H]3C[C@@H](O[C@@H](O)[C@@H]31)O2 [Compound 3] |  | 35.6 ± 1.04 |  |
| CO[C@H]1C[C@@H]2[C@H]([C@H](OC)O1)[C@@](O)(COC(=O)/C=C\c1ccc(O)cc1)C[C@H]2O [Compound 6] |  | 28.2 ± 0.63 | Neuroprotective effect against 6-OHDA-induced PC12 cell injury (cell viability) (PC12 cells; compound 50 μM): apparent protective activity |
| COc1cc([C@@H]2Oc3c(OC)cc(CCCO)cc3[C@H]2CO)ccc1O [Compound 14b, dihydrodehydrodiconiferyl alcohol] |  | 14.1 ± 1.3 |  |
| COc1cc([C@@H](O)[C@H](CO)Oc2ccc(CCCO)cc2OC)ccc1O [Compound 10b, erythro-4,7,9,9′-tetrahydroxy-3,3′-dimethoxy-8,4′-oxyneolignane] |  | 16.2 ± 2.65 |  |
| COC1CC2C(O)CC(O)(COC(=O)C=Cc3ccc(O)cc3)C2C(OC)O1 (stereo not shown) [Compound 8] |  | 39.1 ± 2.3 |  |
| COc1cc(CCCO)cc(OC)c1OC(CO)CO [Compound 22, 3-deoxyartselaenin C] | 20.2 ± 3.53 | 168 ± 4.34 |  |
| COC1CC2C(O)CC(O)(COC(=O)C=Cc3ccc(O)cc3)C2C(OC)O1 (stereo not shown) [Compound 5] |  | 32 ± 1.76 | Neuroprotective effect against 6-OHDA-induced PC12 cell injury (cell viability) (PC12 cells; compound 50 μM): apparent protective activity |
| O=C(/C=C\c1ccc(O)cc1)OC[C@@]12C[C@@H](O)[C@@H]3C[C@@H](O[C@@H](O)[C@@H]31)O2 [Compound 4] |  | 19.4 ± 0.24 |  |
| CO[C@H]1C[C@H]2C=C[C@](O)(COC(=O)/C=C/c3ccc(O)cc3)[C@H]2[C@H](OC)O1 [Compound 7] |  | 50.6 ± 2.97 | Neuroprotective effect against 6-OHDA-induced PC12 cell injury (cell viability) (PC12 cells; compound 50 μM): apparent protective activity |
| COC1OC2CC3C(O)CC(COC(=O)C=Cc4ccc(O)cc4)(O2)C13 (stereo not shown) [Compound 1] |  | 15.3 ± 1.37 | Neuroprotective effect compared with the positive control NAC (PC12 cells; compound 50 μM, NAC 50 μM, 6-OHDA 150 μM): comparable to the positive control NAC; Neuroprotective effect against 6-OHDA-induced PC12 cell injury (cell viability) (PC12 cells; compound 50 μM): apparent protective activity |
| COc1cc([C@@H]2Oc3c(OC)cc(CCCO)cc3[C@H]2CO)ccc1O [Compound 14a, dihydrodehydrodiconiferyl alcohol] |  | 12.3 ± 1.82 | IC50 [3]: 52.2 ± 6.17 µM |
| CO[C@@H]1O[C@@H]2C[C@@H]3[C@H]1[C@@](COC(=O)/C=C\c1ccc(O)cc1)(C[C@H]3O)O2 [Compound 2] |  | 34.2 ± 3.03 |  |
| COc1cc([C@H](O)[C@@H](CO)Oc2ccc(CCCO)cc2OC)ccc1O [Compound 10a, erythro-4,7,9,9′-tetrahydroxy-3,3′-dimethoxy-8,4′-oxyneolignane] |  | 19.7 ± 0.61 |  |
| COc1cc(CCCO)ccc1O[C@@H](CO)[C@H](O)c1cc(OC)c(O)c(OC)c1 [Compound 9a] | 47.5 ± 7.24 | 9.39 ± 0.97 |  |
| O=C1O[C@H]([C@@H](O)CO)C(O)=C1O [Ascorbic acid, ascorbic acid, reference compound] | 13.3 ± 1.86 | 24.3 ± 0.41 |  |
